Consider nine molecules from patent US6066656A, “2,5-diamino-3,4-disubstituted-1,6-diphenylhexane isosteres comprising benzamide, sulfonamide and anthranilamide subunits and methods of using same” (The United States of America as represented by the …, priority 1998, dated 2000).

In series [1] the test system is viral activity. The note with it: cited from earlier work.
The target of series [2] is T1, V82I mutant HIV-1 protease (Human immunodeficiency virus type 1 group M subtype B, UniProt P04585, V570I).
T1 construct: R8Q and V82I mutant HIV-1 proteases
In words: Inhibition of V82I mutant HIV-1 protease (fluorogenic substrate cleavage). It counts as biochemical. The settings on record: Table III. How it is done: (§1) The inhibition constants (Ki) for the compounds of the above examples were determined using purified HIV-1 protease (wild-type, WT) (Tables I, II, IV and V) and R8Q and V82I mutant HIV-1 proteases (Table III). Ki is an inhibition constant of a given compound as derived by enzyme kinetics. A low Ki represents a high affinity of the compound for the enzyme, i.e., tight binding or low dissociation. Inhibition of the cleavage was assayed using a fluorogenic substrate available from Molecular Probes, Inc., Eugene, Oreg., and described in Kageyama et al., Antimicrob. Agents. Chemother., 37, 272 (1993), and a fluorogenic substrate available from Bachem California, Torrance, Calif., and described in Kageyama et al. (1993), supra. The inhibitory potencies of these compounds are set forth in Tables I-V. Percent inhibition is the percentage inhibition of an enzyme's activity by a given compound at a given concentration.

The target of series [3] is T2, HIV-1 protease (wild-type, WT) (Human immunodeficiency virus type 1 group M subtype B, UniProt P04585).
T2 construct: purified HIV-1 protease (wild-type, WT)
Kind of series: Inhibition of purified wild-type HIV-1 protease (fluorogenic substrate cleavage), Ki and % inhibition. The class given is biochemical. How it is done:
as §1

The target in series [4] is T3, R8Q mutant HIV-1 protease (Human immunodeficiency virus type 1 group M subtype B, UniProt P04585, R496Q).
T3 construct: R8Q and V82I mutant HIV-1 proteases
In words: Inhibition of R8Q mutant HIV-1 protease (fluorogenic substrate cleavage). It counts as biochemical. The settings on record: Table III. As for the experimental part: as §1

Series [5] can be described thus: Fluorescence of compounds. The class given is physicochemical. The source says:
The determination of which compounds of the present invention fluoresce can be done in accordance with methods well-known to those of ordinary skill in the art. Such fluorescence can be used to assay for antiviral activity of newly discovered compounds. For example, a fluorescent compound of the present invention can be used as a standard in an antiviral activity assay. The fluorescence of the compound can be measured in the absence and presence of a viral enzyme, such as a retroviral enzyme, in particular a retroviral protease, e.g., an HIV protease, in vitro. A test compound can then be added to the test system comprising the fluorescent compound and the enzyme. The decreased fluorescence of the fluorescent compound of the present invention in the absence and presence of the test compound can be measured and quantitated as a measure of the antiviral activity of the test compound.

Series [6] relates to HIV-1. In words: Anti-retroviral activity in CEM cells chronically infected with HIV-1 (soluble formazan assay). The note with it: Human immunodeficiency virus 1, CCRF-CEM, 50% inhibition of viral activity. The class given is cell-based.
Procedure: The concentration of compound that inhibits 50% of viral activity (EC50 ; determined as described in Weislow et al. (1989), supra) and the inhibition constant (Ki, as defined in Example 7) for the compound were determined.
Series [7] concerns CEM cells. In words: Toxicity of DD-5. The settings on record: even at doses as high as 10^-4 M. The class given is cell-based.
For series [8], the system named is p24 synthesis. Kind of series: Suppression of p24 synthesis. It counts as cell-based, HIV-1. The settings on record: Human immunodeficiency virus 1; read-out: concentrations suppressing p24 synthesis.
Where [9] appears, read: comparison compounds in clinical trials.
Setting [10] is: Table III, wild-type HIV protease, read-out: Ki WT.

Values joined by “and” are separate entries in the source; they are usually repeats but may differ in a detail not shown here. Equal entries are not always repeated. Where two headings read alike, the source gives them in different places.

As for `CC(C)c1nc(CN(C)C(=O)N[C@H](C(=O)N[C@@H](Cc2ccccc2)C[C@H](O)[C@H](Cc2ccccc2)NC(=O)OCc2cncs2)C(C)C)cs1` [ABT538], the EC50 in series [1] (setting [9]) was 36 nM.
For the molecule `Nc1cccc(C(=O)N[C@@H](Cc2ccccc2)[C@H](O)[C@H](O)[C@H](Cc2ccccc2)NC(=O)c2cccc(N)c2)c1` [Compound 17], the Ki was found to be 109 nM in series [2]; 5 nM in series [3] (Table II, read-out: Ki); 5 nM in series [3] (setting [10]); 5 nM in series [3] (read-out: Ki); 20 nM in series [4]. Besides, the “inhibition of HIV PR (in words)” value in series [3] is listed as “potent inhibitors of HIV PR”.
With `O=C(N[C@@H](Cc1ccccc1)C[C@H](O)[C@H](Cc1ccccc1)NC(=O)c1cccc(O)c1)c1cccc(O)c1` [Compound 24], the Ki was 96 nM in series [2]; 25 nM in series [3] (Table II, read-out: Ki); 25 nM in series [3] (setting [10]); 34 nM in series [4]. Further, the “inhibition of HIV PR (in words)” value in series [3] was “did not improve the inhibitory potencies”.
With `O=C(Nc1ccccc1C(=O)N[C@@H](Cc1ccccc1)[C@H](O)[C@H](O)[C@H](Cc1ccccc1)NC(=O)c1ccccc1NC(=O)OCc1ccccc1)OCc1ccccc1` [Compound 27], the fluorescence entry in series [5] was “good fluorescence”. For the same molecule, the Ki came to 2.4 nM in series [3] (Table IV, read-out: Ki) and 2.4 nM in series [3] (read-out: Ki). The “relative potency vs compound 26” value in series [3] (more potent than compound 26) is given as 20 times.
As for `O=C(Nc1ccccc1C(=O)N[C@@H](Cc1ccccc1)[C@H](O)[C@H](O)[C@H](Cc1ccccc1)NC(=O)c1ccccc1NC(=O)OCc1ccccn1)OCc1ccccn1` [Compound 34], the fluorescence result in series [5] is “good fluorescence”. Moreover, in series [6], the EC50 came to 3.2 nM. Also, the Ki in series [3] (Table IV, read-out: Ki) is 0.06 nM; in series [3] (read-out: Ki), 0.061 nM and 0.064 nM.
`O=C(Nc1ccccc1C(=O)N[C@@H](Cc1ccccc1)C[C@H](O)[C@H](Cc1ccccc1)NC(=O)c1ccccc1NC(=O)OCc1ccccn1)OCc1ccccn1` [Compound 36]: the toxicity entry in series [7] was “no toxicity”. In series [6], this molecule showed an EC50 of 2.4 nM. Further, the minimal effective concentration in series [8] is ≥ 0.01 µM.
As for `CC(C)[C@H](NC(=O)N(C)Cc1ccccn1)C(=O)N[C@@H](Cc1ccccc1)[C@H](O)[C@H](O)[C@H](Cc1ccccc1)NC(=O)[C@@H](NC(=O)N(C)Cc1ccccn1)C(C)C` [Compound A77003], in series [1] (comparison compound in clinical trials, no unit printed (Ho et al.)), the EC50 is 200 nM.
Turning to `CSC[C@H](NC(=O)COc1cccc2cnccc12)C(=O)N[C@@H](Cc1ccccc1)[C@H](O)C(=O)N1CSC[C@H]1C(=O)NC(C)(C)C` [KNI272], in series [1] (setting [9]), the half-maximal effective concentration (EC50) was 4.2 nM.
For the molecule `CC(C)(C)NC(=O)[C@@H]1C[C@@H]2CCCC[C@@H]2CN1C[C@@H](O)[C@H](Cc1ccccc1)NC(=O)[C@H](CC(N)=O)NC(=O)c1ccc2ccccc2n1` [Ro31-8959], the EC50 in series [1] (setting [9]) was 10 nM.
